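Cells were grown in 96-well plates and exposed to each compound for 48 hours at five concentrations; endpoints were interpolated linearly between bracketing concentrations, or set to the highest concentration if not reached. GI50 = concentration required for 50% inhibition of growth. TGI denotes the concentration required for complete inhibition of growth.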 *1 amine or outer side, *2 acyl side, *3 side chain or, on linkers, in order; H or OH if unused. Where a SMILES comes first, the peptide text is derived from it. [ ]: non-standard residue; d: D form. The star is where a group is joined. X11 = C/C=C/CC(C)C(O)[C@H](N[*:1])C(=O)[*:2]; Decanoyl = CCCCCCCCCC(=O)*; Leu(ol) = CC(C)C[C@H](N)CO; Iva = CC[C@](C)(N)C(=O)O; Aib = CC(C)(N)C(=O)O
What was measured:
Experiment in all cases: NCI-60 cell line screen, 48 h
MALME-3M melanoma = tested on: MALME-3M melanoma
COLO 205 colon = tested on: COLO 205 colon
RPMI-8226 leukemia = tested on: RPMI-8226 leukemia
SF-268 CNS = tested on: SF-268 CNS
SF-539 CNS = tested on: SF-539 CNS
OVCAR-3 ovarian = tested on: OVCAR-3 ovarian
ACHN renal = tested on: ACHN renal
IGROV1 ovarian = tested on: IGROV1 ovarian
786-0 renal = tested on: 786-0 renal
U251 CNS = tested on: U251 CNS
NCI-H522 lung = tested on: NCI-H522 lung
DU-145 prostate = tested on: DU-145 prostate
UACC-257 melanoma = tested on: UACC-257 melanoma
CCRF-CEM leukemia = tested on: CCRF-CEM leukemia
HOP-62 NSCLC = tested on: HOP-62 NSCLC
UACC-62 melanoma = tested on: UACC-62 melanoma
HOP-92 NSCLC = tested on: HOP-92 NSCLC
SW-620 colon = tested on: SW-620 colon
PC-3 prostate = tested on: PC-3 prostate
EKVX NSCLC = tested on: EKVX NSCLC
LOX IMVI melanoma = tested on: LOX IMVI melanoma
OVCAR-4 ovarian = tested on: OVCAR-4 ovarian
HL-60(TB) leukemia = tested on: HL-60(TB) leukemia
NCI-H23 lung = tested on: NCI-H23 lung
SR leukemia = tested on: SR leukemia
MOLT-4 leukemia = tested on: MOLT-4 leukemia
K-562 leukemia = tested on: K-562 leukemia
CAKI-1 renal = tested on: CAKI-1 renal
SNB-19 CNS = tested on: SNB-19 CNS
MDA-MB-231 breast = tested on: MDA-MB-231 breast
SN12C renal = tested on: SN12C renal
RXF 393 renal = tested on: RXF 393 renal
A549 NSCLC = tested on: A549 NSCLC
HCT-116 colon = tested on: HCT-116 colon
HS 578T breast = tested on: HS 578T breast
TK-10 renal = tested on: TK-10 renal
HCC-2998 colon = tested on: HCC-2998 colon
MDA-MB-435 = tested on: MDA-MB-435
OVCAR-8 ovarian = tested on: OVCAR-8 ovarian
M14 melanoma = tested on: M14 melanoma
MCF7 breast = tested on: MCF7 breast
A498 renal = tested on: A498 renal
NCI-H460 lung = tested on: NCI-H460 lung
UO-31 renal = tested on: UO-31 renal
SK-MEL-5 melanoma = tested on: SK-MEL-5 melanoma
T-47D breast = tested on: T-47D breast
HT29 colon = tested on: HT29 colon
KM12 colon = tested on: KM12 colon
NCI/ADR-RES ovarian = tested on: NCI/ADR-RES ovarian
SK-MEL-28 melanoma = tested on: SK-MEL-28 melanoma
BT-549 breast = tested on: BT-549 breast
SF-295 CNS = tested on: SF-295 CNS
SNB-75 CNS = tested on: SNB-75 CNS
OVCAR-5 ovarian = tested on: OVCAR-5 ovarian
NCI-H226 lung = tested on: NCI-H226 lung
SK-MEL-2 melanoma = tested on: SK-MEL-2 melanoma
SK-OV-3 ovarian = tested on: SK-OV-3 ovarian
HCT-15 colon = tested on: HCT-15 colon

## Clc1cccc(/C=N/Nc2nc(N/N=C/c3cccc(Cl)c3)nc(N3CCOCC3)n2)c1
MALME-3M melanoma
  GI50: 2.86 µM
  TGI: 5.57 µM
COLO 205 colon
  GI50: 1.23 µM
  TGI: > 100 µM
RPMI-8226 leukemia
  GI50: 1.9 µM
  TGI: 6.79 µM
SF-268 CNS
  GI50: 5.1 µM
  TGI: > 100 µM
SF-539 CNS
  GI50: 5.39 µM
  TGI: > 100 µM
OVCAR-3 ovarian
  GI50: 2.87 µM
  TGI: 59.9 µM
ACHN renal
  GI50: 2.11 µM
  TGI: > 100 µM
IGROV1 ovarian
  GI50: 4.61 µM
  TGI: > 100 µM
786-0 renal
  GI50: 1.07 µM
  TGI: 4.12 µM
U251 CNS
  GI50: 3.49 µM
  TGI: > 100 µM
NCI-H522 lung
  GI50: 3.21 µM
  TGI: > 100 µM
DU-145 prostate
  GI50: 2.62 µM
  TGI: > 100 µM
UACC-257 melanoma
  GI50: 2.47 µM
  TGI: 6.52 µM
CCRF-CEM leukemia
  GI50: 1.34 µM
  TGI: 6.6 µM
HOP-62 NSCLC
  GI50: 4.67 µM
  TGI: > 100 µM
UACC-62 melanoma
  GI50: 4.54 µM
  TGI: > 100 µM
HOP-92 NSCLC
  GI50: 2.17 µM
  TGI: > 100 µM
SW-620 colon
  GI50: 1.78 µM
  TGI: > 100 µM
PC-3 prostate
  GI50: 2.91 µM
  TGI: > 100 µM
EKVX NSCLC
  GI50: 4.23 µM
  TGI: > 100 µM
LOX IMVI melanoma
  GI50: 2.99 µM
  TGI: > 100 µM
OVCAR-4 ovarian
  GI50: 5.82 µM
  TGI: > 100 µM
HL-60(TB) leukemia
  GI50: 0.505 µM
  TGI: 3.08 µM
NCI-H23 lung
  GI50: 4.05 µM
  TGI: > 100 µM
SR leukemia
  GI50: 0.329 µM
  TGI: 2.58 µM
MOLT-4 leukemia
  GI50: 1.49 µM
  TGI: 4.4 µM
K-562 leukemia
  GI50: 0.699 µM
  TGI: 7.65 µM
CAKI-1 renal
  GI50: 2.77 µM
  TGI: > 100 µM
SNB-19 CNS
  GI50: 37 µM
  TGI: > 100 µM
MDA-MB-231 breast
  GI50: 9.16 µM
  TGI: > 100 µM
SN12C renal
  GI50: 4.99 µM
  TGI: > 100 µM
RXF 393 renal
  GI50: 1 µM
  TGI: 3.51 µM
A549 NSCLC
  GI50: 3.57 µM
  TGI: > 100 µM
HCT-116 colon
  GI50: 1.27 µM
  TGI: > 100 µM
HS 578T breast
  GI50: 3.76 µM
  TGI: > 100 µM
TK-10 renal
  GI50: 5.89 µM
  TGI: > 100 µM
HCC-2998 colon
  GI50: 2.73 µM
  TGI: > 100 µM
MDA-MB-435
  GI50: 4.24 µM
  TGI: > 100 µM
OVCAR-8 ovarian
  GI50: 4.58 µM
  TGI: > 100 µM
M14 melanoma
  GI50: 3.08 µM
  TGI: > 100 µM
MCF7 breast
  GI50: 2.47 µM
  TGI: > 100 µM
A498 renal
  GI50: 1.67 µM
  TGI: 5.65 µM
NCI-H460 lung
  GI50: 3.47 µM
  TGI: > 100 µM
UO-31 renal
  GI50: 1.61 µM
  TGI: > 100 µM
SK-MEL-5 melanoma
  GI50: 1.72 µM
  TGI: 3.44 µM
T-47D breast
  GI50: 3.54 µM
  TGI: > 100 µM
HT29 colon
  GI50: 1.34 µM
  TGI: > 100 µM
KM12 colon
  GI50: 3.61 µM
  TGI: > 100 µM
NCI/ADR-RES ovarian
  GI50: 3.39 µM
  TGI: > 100 µM
SK-MEL-28 melanoma
  GI50: 2.86 µM
  TGI: 7.74 µM
BT-549 breast
  GI50: 3.22 µM
  TGI: > 100 µM
SF-295 CNS
  GI50: 4.13 µM
  TGI: > 100 µM
SNB-75 CNS
  GI50: 3.33 µM
  TGI: > 100 µM
OVCAR-5 ovarian
  GI50: > 100 µM
  TGI: > 100 µM

## C/C=C/CC(C)C(O)[C@H](NC(=O)[C@@H]1CCCN1C(=O)C(C)(C)NC(=O)CCCCCCCCC)C(=O)N[C@@](C)(CC)C(=O)N[C@@H](CCC(N)=O)C(=O)N[C@H](CCC(N)=O)C(=O)NC(C)(C)C(=O)NC(C)(C)C(=O)N[C@@H](CCC(N)=O)C(=O)N[C@H](CC(C)C)C(=O)N[C@H](CO)CC(C)C (stereo partly drawn) (Decanoyl-[Aib]P[X11][Iva]Q[dQ][Aib][Aib]Q[dL][Leu(ol)])
MALME-3M melanoma
  GI50: 1.56 µM
  TGI: 2.96 µM
COLO 205 colon
  GI50: 2 µM
  TGI: 4.44 µM
RPMI-8226 leukemia
  GI50: 2.05 µM
  TGI: 4.51 µM
SF-268 CNS
  GI50: 1.83 µM
  TGI: 3.56 µM
SF-539 CNS
  GI50: 1.76 µM
  TGI: 3.17 µM
OVCAR-3 ovarian
  GI50: 2.02 µM
  TGI: 4.35 µM
ACHN renal
  GI50: 2.45 µM
  TGI: 6.09 µM
IGROV1 ovarian
  GI50: 2.34 µM
  TGI: 6.31 µM
786-0 renal
  GI50: 1.81 µM
  TGI: 3.35 µM
NCI-H226 lung
  GI50: 2.07 µM
  TGI: 4.56 µM
U251 CNS
  GI50: 1.75 µM
  TGI: 3.36 µM
NCI-H522 lung
  GI50: 1.7 µM
  TGI: 3.36 µM
DU-145 prostate
  GI50: 1.73 µM
  TGI: 3.13 µM
UACC-257 melanoma
  GI50: 1.77 µM
  TGI: 3.37 µM
CCRF-CEM leukemia
  GI50: 2.04 µM
  TGI: 4.4 µM
HOP-62 NSCLC
  GI50: 1.99 µM
  TGI: 4.06 µM
UACC-62 melanoma
  GI50: 1.75 µM
  TGI: 3.38 µM
HOP-92 NSCLC
  GI50: 1.84 µM
  TGI: 4.08 µM
SW-620 colon
  GI50: 2.75 µM
  TGI: 7.17 µM
PC-3 prostate
  GI50: 1.84 µM
  TGI: 3.65 µM
EKVX NSCLC
  GI50: 1.85 µM
  TGI: 3.77 µM
LOX IMVI melanoma
  GI50: 1.73 µM
  TGI: 3.3 µM
OVCAR-4 ovarian
  GI50: 3.91 µM
  TGI: 9.05 µM
HL-60(TB) leukemia
  GI50: 1.93 µM
  TGI: 4.12 µM
SK-MEL-2 melanoma
  GI50: 1.81 µM
  TGI: 3.49 µM
NCI-H23 lung
  GI50: 2.32 µM
  TGI: 5.42 µM
SR leukemia
  GI50: 1.37 µM
  TGI: 3.07 µM
MOLT-4 leukemia
  GI50: 2.33 µM
  TGI: 4.93 µM
K-562 leukemia
  GI50: 1.95 µM
  TGI: 4 µM
CAKI-1 renal
  GI50: 2.13 µM
  TGI: 5.02 µM
SNB-19 CNS
  GI50: 1.7 µM
  TGI: 3.15 µM
MDA-MB-231 breast
  GI50: 1.71 µM
  TGI: 3.16 µM
SK-OV-3 ovarian
  GI50: 3.85 µM
  TGI: 8.71 µM
SN12C renal
  GI50: 2.17 µM
  TGI: 4.92 µM
RXF 393 renal
  GI50: 2.15 µM
  TGI: 4.01 µM
A549 NSCLC
  GI50: 3.02 µM
  TGI: 9.38 µM
HCT-116 colon
  GI50: 2.41 µM
  TGI: 6.09 µM
HS 578T breast
  GI50: 1.78 µM
  TGI: 3.49 µM
TK-10 renal
  GI50: 2.13 µM
  TGI: 4.93 µM
HCC-2998 colon
  GI50: 2.16 µM
  TGI: 4.63 µM
MDA-MB-435
  GI50: 1.68 µM
  TGI: 3.05 µM
OVCAR-8 ovarian
  GI50: 1.84 µM
  TGI: 3.99 µM
HCT-15 colon
  GI50: 2.54 µM
  TGI: 6.93 µM
M14 melanoma
  GI50: 1.81 µM
  TGI: 3.44 µM
MCF7 breast
  GI50: 1.81 µM
  TGI: 3.51 µM
A498 renal
  GI50: 1.94 µM
  TGI: 3.68 µM
NCI-H460 lung
  GI50: 1.86 µM
  TGI: 3.45 µM
UO-31 renal
  GI50: 1.56 µM
  TGI: 3.12 µM
SK-MEL-5 melanoma
  GI50: 1.79 µM
  TGI: 3.3 µM
T-47D breast
  GI50: 2.31 µM
  TGI: 5.95 µM
HT29 colon
  GI50: 2.41 µM
  TGI: 5.68 µM
KM12 colon
  GI50: 1.95 µM
  TGI: 3.94 µM
NCI/ADR-RES ovarian
  GI50: 2.04 µM
  TGI: 4.45 µM
SK-MEL-28 melanoma
  GI50: 1.76 µM
  TGI: 3.16 µM
BT-549 breast
  GI50: 1.98 µM
  TGI: 3.67 µM
SF-295 CNS
  GI50: 1.76 µM
  TGI: 3.32 µM
SNB-75 CNS
  GI50: 1.48 µM
  TGI: 2.98 µM
OVCAR-5 ovarian
  GI50: 1.73 µM
  TGI: 3.29 µM

— PubChem BioAssay (NCI)
